# Experimental data as given in patent US20250093315A1, “MOLECULAR SENSORS, METHOD AND KIT FOR THE DETECTION AND QUANTIFICATION OF CARBON DIOXIDE” (ETH Zurich, priority 2022, published 2025).
# Assays:
# [1] = Reaction kinetics by fluorescence at varying concentrations of sensor or CO2; settings: dependence for both (I1) and carbon dioxide
# Description: The reaction kinetics were investigated with the same compounds of Formulae (I1) and (I1b) by measuring fluorescence at different time points using varying concentrations of either (I1) or carbon dioxide.
# HeLa cells = test: Cell imaging of CO2; type: cell-based; settings: 5 μM for 10 minutes; ambient air or 5% CO2; imaged at different time points
# Experimental: The selectivity of the compound (I4) was evaluated against common analytes in cells. HeLa cells were treated with compound (I4) [5 μM] for 10 minutes, followed by washing thrice to remove excess sensor. Then, as an exogenous CO2 model, the cells were incubated under ambient air or at 5% CO2 and imaged at different time points. […] In addition, time-dependent response of cells that were incubated under ambient conditions was attributed to basal levels of CO2 production by metabolic processes.
Structure (SMILES),reaction order [1],fluorescent signal in cells (HeLa cells)
CCN(CC)c1ccc2c(NCc3ccccc3N=P(c3ccccc3)(c3ccccc3)c3ccccc3)cc(=O)oc2c1 [Compound (I1)],first-order dependence,–
CN(C)c1ccc2c(NCc3ccccc3N=P(c3ccccc3)(c3ccccc3)c3ccccc3)c3ccc(=[N+](C)C)cc-3oc2c1 [(I4)],–,significant time-dependent fluorescent increase in the red channel and decrease in the green channel
